{"source": "patent US11759448B2", "about": "“Methods for the treatment of inflammation” (University of South Florida, priority 2020, dated 2023)", "key": {"TNF-α": {"tested_on": "TNF-α", "experiment": "tumor necrosis factor alpha (TNF-α) assay", "assay_type": "cell-based", "conditions": "FIG. 1; y-axis TNF-α in picograms per milliliter, lower values mean lower inflammation in the cell", "experimental": "(§1) The fractions isolated may be tested for activity against COX-2 or TNF-α using assays as would be known to those having skill in the art. Representative examples of such assays that could be used include a COX-2 inhibitory fluorometric assay or a TNF-α inhibitory fluorometric assay, each of which are commercially available from numerous suppliers.\n(§2) The crude sample provided was dissolved in Ethyl acetate and dried down on Silica gel in a 1:3 ratio. Medium pressure chromatography was performed using a Teledyne-Isco combi-flash Torrent system. A 750 gram silica column was used with a Hexanes to Ethyl acetate gradient, which gave 11 fractions. Fraction A was then subjected to high pressure liquid chromatography on a preparative Silica NP column (250×20 mm), with a gradient between Hexanes to 20% ethyl acetate, which gave 4 fractions. The active fraction was further purified, with a gradient of Hexanes to 100% ethyl acetate on a preparative Silica NP column (250×20 mm), which gave 23 fractions. Fraction 17 was subjected to two rounds of NP hplc using an analytical Silica column (250×10 mm), which gave the final pure compound. An LC-20AD Shimadzu system and an SPD-20A UV detector was used for the hplc separations. All steps were guided using bioassay data from the COX-2 and TNF-α assays. […]"}, "COX-2": {"molecular_target": "T1, COX-2 (Homo sapiens, UniProt P35354)", "T1 sequence (P35354 18-604)": "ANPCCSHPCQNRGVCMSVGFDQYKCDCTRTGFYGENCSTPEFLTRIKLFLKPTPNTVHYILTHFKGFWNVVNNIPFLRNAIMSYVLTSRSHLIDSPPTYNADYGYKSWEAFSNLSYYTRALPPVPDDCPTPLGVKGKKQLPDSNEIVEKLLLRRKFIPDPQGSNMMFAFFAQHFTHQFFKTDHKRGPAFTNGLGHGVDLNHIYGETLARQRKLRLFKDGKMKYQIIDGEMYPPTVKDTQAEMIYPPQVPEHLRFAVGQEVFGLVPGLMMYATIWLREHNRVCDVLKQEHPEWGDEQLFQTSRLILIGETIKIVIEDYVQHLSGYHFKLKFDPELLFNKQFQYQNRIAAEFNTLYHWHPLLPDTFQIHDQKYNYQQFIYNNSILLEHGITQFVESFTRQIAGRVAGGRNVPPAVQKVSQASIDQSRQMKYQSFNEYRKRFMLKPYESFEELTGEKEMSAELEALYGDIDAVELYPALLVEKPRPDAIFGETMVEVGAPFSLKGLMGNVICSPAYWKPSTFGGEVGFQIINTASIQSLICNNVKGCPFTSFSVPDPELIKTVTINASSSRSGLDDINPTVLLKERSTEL", "experiment": "COX-2 assay", "assay_type": "biochemical", "conditions": "FIG. 2; compared to control diclofenac and dimethyl sulfoxide blank", "experimental": "as §1, §2"}}, "data": [{"smiles": "C[C@@]12CCC[C@@H]3c4ccccc4[C@@H](C[C@@H]31)OC2=O", "note": "[compound of formula (I)]", "values": [{"measurement": "inhibitory activity of TNF-α (levels of TNF-α)", "setting": "TNF-α", "value": "inhibitory activity"}, {"measurement": "inhibitory activity on COX-2 (level of prostaglandins in the sample)", "setting": "COX-2", "value": "limited to no inhibitory activity"}]}]}
